Laboratory results taken from article PMC6405930, “Conservation of the Amyloid Interactome Across Diverse Fibrillar Structures” (Scientific Reports, 2019).

Tests used:
C-36 fibrils [1] = target: T1, C-36 fibrils (Homo sapiens, UniProt P01009); assay: Determination of the binding capacity (dye depletion from supernatant); conditions: 2 nmol dye (20 µM) with 10 μg fibril material, one hour
T1 construct: the 36 residue C-terminal fragment of α1-antitrypsin (C-36)
Procedure: (§1) Control samples (without fibril material) were prepared similarly. Fibrils and fibril-bound ligand were pelleted by centrifugation (17,000 g, 30 min) and the supernatant (90 μL) was transferred to a 96 well half-area plate (Corning 3881).

αSN fibrils [2] = target: T2, αSN fibrils (Homo sapiens, UniProt P37840); assay: as above; conditions: 2 nmol dye (20 µM) with 10 μg fibril material, one hour
Procedure: as §1

glucagon fibrils [3] = target: T3, glucagon fibrils (Homo sapiens, UniProt P01275); assay: as above; conditions: 2 nmol dye (20 µM) with 10 μg fibril material, one hour
T3 construct: fibrils of the peptide hormone glucagon
T3 sequence (P01275 53-81 limits assumed): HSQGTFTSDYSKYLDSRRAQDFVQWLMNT
Procedure: as §1

Ab2 fibrils [4] = test system: T4, Ab2 fibrils; assay: as above; set-up: species or system human; conditions: 2 nmol dye (20 µM) with 10 μg fibril material, one hour
T4 construct: Two structurally distinct fibrils of the Aβ(1–40) peptide associated with AD
Procedure: as §1

Ab1 fibrils [5] = test system: T5, Ab1 fibrils; assay: as above; set-up: species or system human; conditions: 2 nmol dye (20 µM) with 10 μg fibril material, one hour
T5 construct: Synthetic amyloid β peptide 1–40 was purchased from Caslo Aps (Lyngby, Denmark); purchased Caslo Aps (Lyngby, Denmark); host or cells: synthetic peptide
Procedure: as §1

[6] = target: fibrils of a short Aβ fragment; set-up: method as in PMID 23878726; conditions: read-out: dissociation constant; cited from earlier work
C-36 fibrils [7] = target: T1, C-36 fibrils; assay: Fibril incubation with plasma, quantitative MS/MS of bound proteins; format: binding; conditions: 50:1 w/w plasma protein:fibril
Procedure: (§2) Plasma and CSF solutions were centrifuged (40,000 g, 20 min) to remove any aggregates. The protein concentration was determined using 280 nm absorbance assuming 1 Abs = 1 mg/mL. […] Control samples (without fibril material) were prepared similarly. All samples were incubated at room temperature for one hour under gentle agitation. Fibrils and fibril-bound proteins were pelleted by centrifugation at 17,000 g for 30 minutes. The supernatant (175 μL) was removed and the aggregate was re-suspended in 175 μL PBS and pelleted again before further preparation for gel analysis and spin-filter assisted digest for quantitative MS/MS.
(§3) The fibril-protein pellets were transferred to spin-filters (0.22 μm), washed twice in PBS (100 μL) and once in 1 M NaCl (100 μL). The fibrils and fibril-bound proteins were dissolved by one-hour incubation in 100 μL 6 M guanidinium chloride followed by elution from the spin-filter. The eluted proteins were loaded onto a 3 kDa MWCO filter unit for filter-assisted unfolding, reduction, alkylation, and trypsin digestion. In brief, samples were washed twice in 8 M urea, once in 8 M urea with 50 mM DTT, once in 8 M urea with 50 mM iodoaceteamide, and twice in 8 M Urea. The filter units were dried by centrifugation (14,000 g in 30 minutes) after every addition. Trypsin digestion was carried out with 0.25 μg sequencing grade trypsin from Sigma Aldrich in 50 mM ammonium bicarbonate overnight at 37 °C. The tryptic peptides were collected by centrifugation, acidified with TFA (0.1%) and micro-purified using POROS R2 column material (Applied Biosystems) packed in P200 pipette tips (Sarstedt).
(§4) LC-MS/MS analyses were performed on an EASY-nLC II system (Thermo Fisher Scientific) connected to a TripleTOF 5600+ mass spectrometer (Sciex) equipped with a NanoSpray III source (Sciex) and operated under Analyst TF 1.6.0 control.
(§5) The micro-purified tryptic peptides were dissolved in 0.1% formic acid, injected and trapped on an in-house packed trap column (2 cm × 100 μm I.D) with RP ReproSil-Pur C18-AQ 3 μm resin (Dr. Maisch GmbH). Peptides were eluted from the trap column and separated on a 15 cm analytical column (75 μm i.d.) packed in-house in a pulled emitter with RP ReproSil-Pur C18-AQ 3 μm resin (Dr. Maisch GmbH). Elution from the analytical column was performed with a linear gradient from 5% to 35% phase B (90% acetonitrile with 0.1% formic acid) over 20 min for protein identification and 50 min for quantitative analysis, respectively.
(§6) All samples were analysed three times, yielding nine MS/MS experiments for each fibril for both plasma and CSF. For the area-based extracted ion chromatogram (XIC) quantification, the acquisition method was set up as an information-dependent acquisition (IDA) experiment collecting up to 25 MS/MS spectra in each 1.6 sec cycle using an exclusion window of 6 sec.
(§7) XIC quantification was based on the average ion intensity of the three most abundant peptides for each protein. Only proteins quantified in at least four out of nine MS/MS experiments per fibril were included in the quantification. The total ion scores were visualized after grouping the proteins according to function (Figure S11).
(§8) For each MS/MS experiment, the ion intensities of the individual proteins were normalized to the total ion intensity of that MS/MS experiment to achieve a relative protein composition. The contribution of each protein was averaged over all nine MS/MS experiments (Tables 1 and 2).

αSN fibrils [8] = target: T2, αSN fibrils; assay: as above; format: binding; conditions: 50:1 w/w plasma protein:fibril
Procedure: as §2, §3, §4, §5, §6, §7, §8

glucagon fibrils [9] = target: T3, glucagon fibrils; assay: as above; format: binding; conditions: 50:1 w/w plasma protein:fibril
Procedure: as §2, §3, §4, §5, §6, §7, §8

Ab1 fibrils [10] = test system: T5, Ab1 fibrils; assay: as above; format: binding, human; conditions: 50:1 w/w plasma protein:fibril
Procedure: (§9) Plasma and CSF solutions were centrifuged (40,000 g, 20 min) to remove any aggregates. The protein concentration was determined using 280 nm absorbance assuming 1 Abs = 1 mg/mL. […] Control samples (without fibril material) were prepared similarly. All samples were incubated at room temperature for one hour under gentle agitation. Fibrils and fibril-bound proteins were pelleted by centrifugation at 17,000 g for 30 minutes. The supernatant (175 μL) was removed and the aggregate was re-suspended in 175 μL PBS and pelleted again before further preparation for gel analysis and spin-filter assisted digest for quantitative MS/MS.
as §3, §4, §5, §6, §7, §8

FAS4-AD aggregates = test system: T6, FAS4-AD aggregates; assay: as above; format: binding, human; set-up: key to Identification status of plasma protein bound: FAS4-AD: *: Identified, but not quantified; —: Not identified in any of the samples; conditions: symbol cells
T6 construct: aggregates of a mutated version of the FAS1-4 domain of TGFBIp
Procedure: as §2, §3, §4, §5, §6, §7, §8

Ab2 fibrils [11] = test system: T4, Ab2 fibrils; assay: as above; format: binding, human; conditions: 50:1 w/w plasma protein:fibril
Procedure: as §2, §3, §4, §5, §6, §7, §8

[12] = test system: fibril systems (Ab1, Ab2, glucagon, αSN and C-36); assay: Fibril incubation with plasma, quantitative MS/MS, span over the fibril systems; format: binding, human
Procedure: as §9
The fibril-protein pellets were transferred to spin-filters (0.22 μm), washed twice in PBS (100 μL) and once in 1 M NaCl (100 μL). The fibrils and fibril-bound proteins were dissolved by one-hour incubation in 100 μL 6 M guanidinium chloride followed by elution from the spin-filter. […]
as §5, with “Peptides were eluted from the trap column and separated on a 15 cm analytical column (75 μm i.d.) packed in-house in a pulled emitter with RP ReproSil-Pur C18-AQ 3 μm resin (Dr. Maisch GmbH).” left out
as §6, with “sec. […]” for “sec.”
XIC quantification was based on the average ion intensity of the three most abundant peptides for each protein. Only proteins quantified in at least four out of nine MS/MS experiments per fibril were included in the quantification. […]

T1 sequence (P01009 383-418 limits assumed): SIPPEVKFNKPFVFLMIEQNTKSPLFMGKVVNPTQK

Compound	Ligand bound (binding capacity) (C-36 fibrils [1])	Ligand bound (binding capacity) (αSN fibrils [2])	Ligand bound (binding capacity) (glucagon fibrils [3])	Ligand bound (binding capacity) (Ab2 fibrils [4])	Ligand bound (binding capacity) (Ab1 fibrils [5])	Kd [6]	Relative composition of plasma proteins bound: C-36 (C-36 fibrils [7])	Relative composition of plasma proteins bound: αSN (αSN fibrils [8])	Relative composition of plasma proteins bound: Glucagon (glucagon fibrils [9])	Relative composition of plasma proteins bound: Ab1 (Ab1 fibrils [10])	Identification status of plasma protein bound: FAS4-AD (FAS4-AD aggregates)	Relative composition of plasma proteins bound: Ab2 (Ab2 fibrils [11])	contribution to the fibril interactomes [12]
O=S(=O)(O)c1cc(S(=O)(=O)O)c2c(/N=N/c3ccccc3)c(O)ccc2c1 [Orange-G]	28 nmol/mg fibril	6 nmol/mg fibril	6 nmol/mg fibril	4 nmol/mg fibril	7 nmol/mg fibril	~50 µM							
Apolipoprotein B-100: plasma protein bound to fibrils							0.1 ± 0.0 % of total protein	0.2 ± 0.1 % of total protein	0.4 ± 0.0 % of total protein	0.6 ± 0.1 % of total protein	*	0.5 ± 0.2 % of total protein	0.4%
O=C(O)c1cc(/C=C/c2ccc(/C=C/c3ccc(O)c(C(=O)O)c3)c(F)c2)ccc1O [FSB, (E,E)-1-fluoro-2,5-bis-(3-hydroxycarbonyl-4-hydroxy)styrylbenzene]	197 nmol/mg fibril	123 nmol/mg fibril	128 nmol/mg fibril	54 nmol/mg fibril	45 nmol/mg fibril								
